Measured values reported in ChEMBL document CHEMBL4190360, “Exploring Heteroaryl-pyrazole Carboxylic Acids as Human Carbonic Anhydrase XII Inhibitors” (ACS Med Chem Lett, 2017).

Tests used:
HEK293 [1] = experiment: (§1) Growth inhibition of HEK293 cells at 1 to 100 uM after 24 hrs by MTS assay relative to control; assay type: cell-based; conditions: human, hek293, 24 h, 100 µM
PC-3 = experiment: Growth inhibition of human PC3 cells at 1 to 100 uM after 24 hrs by MTS assay relative to control; assay type: functional
SH-SY5Y [2] = experiment: Growth inhibition of human SH-SY5Y cells at 1 to 100 uM after 24 hrs by MTS assay relative to control; assay type: functional
Carbonic anhydrase 9 = Carbonic anhydrase 9 (Homo sapiens, UniProt Q16790)
Description: Inhibition of recombinant human carbonic anhydrase 9 catalytic domain preincubated for 15 mins prior to testing measured for 10 to 100 secs by phenol red-based stopped-flow CO2 hydration assay

HEK293 [3] = experiment: Growth inhibition of HEK293 cells after 24 hrs by MTS assay; assay type: cell-based; conditions: human, hek293, 24 h
[4] = as §1; assay type: cell-based; conditions: human, HEK293 cells; read-out: GI
SH-SY5Y [5] = experiment: Antiproliferative activity against CoCl2-simulated human SH-SY5Y cells assessed as reduction in cell viability at 30 uM pretreated for 24 hrs followed by CoCl2 addition measured after overnight incubation by MTS assay; assay type: functional

Compound | growth inhibition (GI) (HEK293 [1]) | growth inhibition (GI) (PC-3) | growth inhibition (GI) (SH-SY5Y [2]) | Ki (Carbonic anhydrase 9) | growth inhibition (GI) (HEK293 [3]) | inhibition at 24 h, 100 µM [4] | Activity (SH-SY5Y [5])
CCn1cc(-c2cc(C(=O)O)n[nH]2)c2ccccc21 | Non-Toxic | 85% | 85% | – | – | – | –
CCn1cc(-c2cc(C(=O)O)n(C)n2)c2ccccc21 | – | – | – | 2.91 µM | – | – | –
CC(C)n1cc(-c2cc(C(=O)O)[nH]n2)c2ccccc21 | Non-Toxic | 85% | 85% | 18.9 µM | – | – | –
CCCCn1cc(-c2cc(C(=O)OC)[nH]n2)c2ccccc21 | – | – | – | 7.9 µM | – | – | –
CCn1cc(-c2cc(C(=O)OC)[nH]n2)c2ccccc21 | Non-Toxic | 85% | 85% | 0.47 µM | – | – | –
CCn1cc(-c2cc(C(=O)OC)n(C)n2)c2ccccc21 | – | – | – | 3.02 µM | – | – | –
COC(=O)c1cc(-c2cn(C(C)C)c3ccccc23)n[nH]1 | – | 85% | 85% | 7.36 µM | Dose-dependent effect | 70% | 40%
CCCCn1cc(-c2cc(C(=O)O)[nH]n2)c2ccccc21 | – | – | – | 4.51 µM | – | – | –
